The test system of test [1] is Pseudomonas aeruginosa. Briefly: microbe, parasite or virus in culture. To be noted: ATCC 27853, 18 h, ASSAY_TEST Inhibition of Bacterial Growth, detection method Absorption (OD600), MEDIA CAMHB, plate type 384well, NBS, CORNING #3640.
Description: Antibacterial activity against Pseudomonas aeruginosa ATCC 27853 (CO-ADD:GN_042); MIC in CAMBH media using NBS plates, by OD(600)
Another test has as its system Acinetobacter baumannii. The test is described as follows: microbe, parasite or virus in culture. The note with it: ATCC 19606, 18 h, ASSAY_TEST Inhibition of Bacterial Growth, detection method Absorption (OD600), MEDIA CAMHB, plate type 384well, NBS, CORNING #3640.
In test [2] the test system is Pseudomonas aeruginosa. The test is described as follows: Antibacterial activity against Pseudomonas aeruginosa PAO397 [PAO1 d(mexAB-oprM) d(mexCD-oprJ) d(mexEF-oprN) d(mexJKL) d(mexXY) d(opmH)] (CO-ADD:GN_211); MIC in CAMBH media using NBS plates, by OD(600). Format: functional. The note with it: ASSAY_TEST Inhibition of Bacterial Growth, detection method Absorption (OD600), MEDIA CAMHB, plate type 384well, CORNING #3640, time 18 hr.

In brackets after ≈: the same amount, converted by molar mass. Some results are limits rather than exact numbers.

Description for Acinetobacter baumannii: Antibacterial activity against Acinetobacter baumannii ATCC 19606 (CO-ADD:GN_034); MIC in CAMBH media using NBS plates, by OD600

In the case of `O=C(NCCO)Nc1cc(F)ccc1N1CCCCC1`, the MIC in the test on Pseudomonas aeruginosa [1] was greater than 300 µM; against Acinetobacter baumannii it was greater than 300 µM; against Pseudomonas aeruginosa [2], 300 µM (≈ 84.4 µg/mL).

`COc1ccc(C2NC(=O)c3cccnc3N2)cc1F` (stereo unspecified): the MIC in the test on Pseudomonas aeruginosa [1], in the test on Acinetobacter baumannii and with Pseudomonas aeruginosa [2] was greater than 300 µM each time.

For `NCCNS(=O)(=O)c1ccc(F)c(C(F)(F)F)c1`, the MIC in the test on Pseudomonas aeruginosa [1], with Acinetobacter baumannii and in the test with Pseudomonas aeruginosa [2] was greater than 300 µM in each case.

As for `NCC(CO)Cc1ccc(Br)cc1` (stereo unspecified), the MIC with Pseudomonas aeruginosa [1], against Acinetobacter baumannii and against Pseudomonas aeruginosa [2] was greater than 300 µM each time.

Turning to `CN(C)c1ccc(-c2[nH][nH]c(=O)c2CCN)cc1`, the MIC in the test on Pseudomonas aeruginosa [1], in the test on Acinetobacter baumannii and in the test on Pseudomonas aeruginosa [2] was greater than 300 µM in each case.

`Cc1ccc2c(N)noc2n1`: the MIC against Pseudomonas aeruginosa [1] is 135 µM (≈ 20.1 µg/mL); against Acinetobacter baumannii, greater than 300 µM; against Pseudomonas aeruginosa [2], 135 µM (≈ 20.1 µg/mL).

Take `CC(Sc1n[nH]c(-c2ccccn2)n1)C(=O)N(C)C` (stereo unspecified): the MIC in the test on Pseudomonas aeruginosa [1], against Acinetobacter baumannii and in the test on Pseudomonas aeruginosa [2] was greater than 300 µM throughout.

As for `Cn1ccc(C(=O)Nc2ccc(Br)cn2)n1`, the MIC with Pseudomonas aeruginosa [1], in the test on Acinetobacter baumannii and in the test with Pseudomonas aeruginosa [2] was greater than 300 µM throughout.

For `CCn1cc(C(=O)Nc2ccc(Br)cn2)cn1`, the MIC against Pseudomonas aeruginosa [1], in the test on Acinetobacter baumannii and against Pseudomonas aeruginosa [2] was greater than 300 µM throughout.

On to `CS(=O)(=O)N1CCSc2ccc(Cl)cc21`, for which the MIC with Pseudomonas aeruginosa [1], against Acinetobacter baumannii and against Pseudomonas aeruginosa [2] was greater than 300 µM in each case.

Regarding `OCC(O)CNc1ccnc2ccc(Br)cc12` (stereo unspecified), the MIC in the test on Pseudomonas aeruginosa [1], against Acinetobacter baumannii and with Pseudomonas aeruginosa [2] was greater than 300 µM throughout.

As for `NCC1CCN(CCc2ccccc2)C1` (stereo unspecified), the MIC against Pseudomonas aeruginosa [1], against Acinetobacter baumannii and against Pseudomonas aeruginosa [2] was greater than 300 µM throughout.

As for `Cc1cc(NCCO)nc2ccccc12`, the MIC against Pseudomonas aeruginosa [1], against Acinetobacter baumannii and in the test with Pseudomonas aeruginosa [2] was greater than 300 µM in each case.

For `CN(C(=O)CN)c1ccc(-c2ccccc2)cc1`, the MIC in the test on Pseudomonas aeruginosa [1], with Acinetobacter baumannii and against Pseudomonas aeruginosa [2] was greater than 300 µM throughout.

For the molecule `CC(=O)Nc1ccc(-c2ccc(C#N)nc2)cc1`, the MIC against Pseudomonas aeruginosa [1], in the test on Acinetobacter baumannii and against Pseudomonas aeruginosa [2] was greater than 300 µM each time.

Turning to `Cn1ccnc1-c1noc(NC(=O)c2ccccn2)n1`, the MIC against Pseudomonas aeruginosa [1], against Acinetobacter baumannii and against Pseudomonas aeruginosa [2] was greater than 300 µM each time.

Regarding `O=C(CSc1ncn[nH]1)Nc1ncc(Br)s1`, the MIC in the test on Pseudomonas aeruginosa [1], against Acinetobacter baumannii and in the test with Pseudomonas aeruginosa [2] was greater than 300 µM in each case.

Turning to `NC(=O)CSc1nnc(-c2cc(Br)ccc2O)[nH]1`, the MIC against Pseudomonas aeruginosa [1], against Acinetobacter baumannii and in the test on Pseudomonas aeruginosa [2] was greater than 300 µM in each case.

In the case of `NC(=O)Nc1cccc(C(=O)Nc2ccc(Cl)cn2)c1`, the MIC against Pseudomonas aeruginosa [1], in the test on Acinetobacter baumannii and with Pseudomonas aeruginosa [2] was greater than 300 µM throughout.

For `CC(C)(N)C(O)c1ccc(Br)cc1` (stereo unspecified), the MIC in the test on Pseudomonas aeruginosa [1], in the test with Acinetobacter baumannii and against Pseudomonas aeruginosa [2] was greater than 300 µM in each case.

As for `COCCOc1ccc(CNC(=O)c2ccoc2)cn1`, the figures for the MIC in the test on Pseudomonas aeruginosa [1], in the test with Acinetobacter baumannii and in the test on Pseudomonas aeruginosa [2] were 60 µM (≈ 16.6 µg/mL), greater than 300 µM and greater than 300 µM, respectively.

As for `c1ccc2c(N3CCNCC3)cncc2c1`, the MIC against Pseudomonas aeruginosa [1], with Acinetobacter baumannii and with Pseudomonas aeruginosa [2] was greater than 300 µM each time.
